These results are taken from PMC5359624, “A structure- and chemical genomics-based approach for repositioning of drugs against VCP/p97 ATPase” (Scientific Reports, 2017).

pIC50: −log10 of the molar value. Values joined by “and” are separate entries in the source; they are usually repeats but may differ in a detail not shown here. Equal values may be shown once. Residues, ends and D or L forms follow the SMILES beside them. *: point of attachment. Cbz = O=C(OCc1ccccc1)* Where only a bound is given, the exact number is not on record here.

The subject of series [1] is UbG76V-GFP (p97-dependent substrate). Put plainly: UbG76V-GFP degradation assay (dual-reporter HeLa cell line). It counts as cell-based. The conditions noted are these: HeLa dual-reporter cells, 160 min. How it is done:
(§1) First, the activities of these compounds against VCP/p97 in a cell-based degradation assay[31] were evaluated. For this purpose, we used a dual-reporter system to monitor the ubiquitin-proteasome system (UPS) and VCP/p97 function in mammalian cells. This system comprises an ubiquitin fusion degradation (UFD) reporter Ub^G76V-GFP and the oxygen-dependent degradation domain of HIF1α fused to luciferase (ODD-Luc), a non-ERAD substrate for proteasomal degradation. Measurement of GFP and luciferase activity in response to a treatment allows to assess the effect on p97-dependent and p97-independent proteolysis.
(§2) A dual-reporter stable HeLa cell line was generated to monitor UPS function in mammalian cells. A ubiquitin fusion degradation (UFD) reporter Ub^G76V-GFP and an oxygen-dependent degradation domain of HIF1α fused to luciferase (ODD-Luc). […] Cells were seeded on 384-well plates (3000 cells/well) and grown for 18 h. Cells were treated with modified DMEM (without phenol red, folic acid, riboflavin, and vitamin B12) containing MG132 (4 μM) for 1 h and washed twice with pre-warmed PBS. […] Plates were imaged on the ImageXpress Micro microscope (Molecular Devices) after 160 min. Luciferase activity were measured by adding D-Luciferin (10 μl of 2.5 mg/mL in PBS) into each well containing 38 μl of medium and incubated at room temperature for 10 min. Use Synergy Neo (BioTek) to read Luciferase signal.

In series [2] the test system is ODD-Luc (p97-independent proteasome substrate). Put plainly: ODD-Luc degradation assay (dual-reporter HeLa cell line). The series is classed as cell-based. The conditions noted are these: HeLa dual-reporter cells. As for the experimental part: as §1, §2
Another series deals with WT VCP/p97 ATPase (Homo sapiens, UniProt P55072). Put plainly: In vitro ATPase assay, WT VCP/p97. The series is classed as biochemical. The conditions noted are these: 200 μM ATP, 8-dose titration. An excerpt:
(§3) In order to test direct inhibition of VCP/p97 ATPase activity by these compounds, we performed in vitro ATPase assays of the five UPS and VCP/p97 perturbing compounds to evaluate their inhibitory activity against VCP/p97.

The next series has as its target E578Q VCP/p97 ATPase (Homo sapiens, UniProt P55072, E578Q). Nature of the series: In vitro ATPase assay, E578Q (D2 Walker B mutant, D1-active). The following applies: for pIC50: 200 μM ATP, 8-dose titration. It counts as biochemical.
From the text: as §3

The target of the next series is E305Q VCP/p97 ATPase (Homo sapiens, UniProt P55072, E305Q). Nature of the series: In vitro ATPase assay, E305Q (D1 Walker B mutant, D2-active). It counts as biochemical. The following applies: for pIC50: 200 μM ATP, 8-dose titration.
E305Q VCP/p97 ATPase, sequence (P55072 whole entry E305Q): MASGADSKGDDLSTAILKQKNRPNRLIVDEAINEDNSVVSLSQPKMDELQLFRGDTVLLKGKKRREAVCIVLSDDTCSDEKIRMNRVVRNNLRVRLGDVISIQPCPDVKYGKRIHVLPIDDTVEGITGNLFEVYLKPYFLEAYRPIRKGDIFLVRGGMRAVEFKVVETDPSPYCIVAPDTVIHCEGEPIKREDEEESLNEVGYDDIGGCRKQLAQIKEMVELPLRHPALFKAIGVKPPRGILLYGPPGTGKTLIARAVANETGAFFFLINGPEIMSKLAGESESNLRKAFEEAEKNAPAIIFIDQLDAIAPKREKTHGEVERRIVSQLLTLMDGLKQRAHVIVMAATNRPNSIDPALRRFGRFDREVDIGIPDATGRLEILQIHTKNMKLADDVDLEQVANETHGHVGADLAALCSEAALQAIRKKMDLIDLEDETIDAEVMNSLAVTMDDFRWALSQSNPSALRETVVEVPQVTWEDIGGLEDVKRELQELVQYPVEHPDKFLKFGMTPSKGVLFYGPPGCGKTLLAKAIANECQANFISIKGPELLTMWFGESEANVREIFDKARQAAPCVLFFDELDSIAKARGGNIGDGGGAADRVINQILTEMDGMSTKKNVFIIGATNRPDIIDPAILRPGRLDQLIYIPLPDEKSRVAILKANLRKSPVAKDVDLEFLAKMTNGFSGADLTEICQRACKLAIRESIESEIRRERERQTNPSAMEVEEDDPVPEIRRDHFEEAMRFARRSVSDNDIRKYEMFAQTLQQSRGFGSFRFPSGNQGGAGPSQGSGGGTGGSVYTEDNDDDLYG
From the text: as §3

Another series concerns NSCLC cells. On the set-up: method as in PMID 27333030. The conditions noted are these: sub-micromolar concentrations; cited from earlier work.
The next series relates to tumor growth. The following applies: 50 mg/kg, mice; cited from earlier work.
Another series deals with VCP. On the set-up: method as in PMID 23892893. The conditions noted are these: read-out: Experimental IC50; cited from earlier work.
On the set-up of series [3]: method as in PMID 23245311. The conditions noted are these: oral administration in mice; cited from earlier work.
The conditions of series [4]: cited from earlier work.

WT VCP/p97 ATPase, sequence (P55072 whole entry): as the sequence (P55072 whole entry E305Q) above, with Q305E counted along it
E578Q VCP/p97 ATPase, sequence (P55072 whole entry E578Q): as the sequence (P55072 whole entry E305Q) above, with Q305E, E578Q counted along it

What is called pIC50 is the negative decadic logarithm of the IC50, by convention in mol/L. For the compound Ivermectin, the negative-log IC50 (pIC50) in [1] was 5.01; in [2], < 4.40; on WT VCP/p97 ATPase it was < 4.52; against E578Q VCP/p97 ATPase it was < 4.52; on E305Q VCP/p97 ATPase it was < 4.52. On WT VCP/p97 ATPase, the “IC50 WT VCP/p97 ATPase activity” value was “did not show activity”.

Take `COc1ccc(CCN2CCC(Nc3nc4ccccc4n3Cc3ccc(F)cc3)CC2)cc1` [Astemizole]: the negative logarithm of the IC50 (pIC50) against WT VCP/p97 ATPase was 4.60; against E578Q VCP/p97 ATPase it was < 4.52; against E305Q VCP/p97 ATPase, < 4.52. For the same compound, the “sensitization of NSCLC cells to chemotherapy” value with NSCLC cells is “sensitized NSCLC cells to chemotherapy”. Moreover, in the series on tumor growth, the tumor growth inhibition result is “sufficient to inhibit tumor growth”.

For the compound `c1ccc(CNc2nc(NCc3ccccc3)c3ccccc3n2)cc1` [DBeQ], the pIC50 on WT VCP/p97 ATPase was 5.52; at E578Q VCP/p97 ATPase it was 4.96; against E305Q VCP/p97 ATPase, 5.26. Further, the “IC50 increase against the D2 mutant relative to wild-type VCP/p97” value on E578Q VCP/p97 ATPase (E578Q vs WT) is listed as 3.7 fold. In addition, the “IC50 increase against the D1 mutant relative to wild-type VCP/p97” value at E305Q VCP/p97 ATPase (E305Q vs WT) was determined as 1.8 fold.

For the compound `O=C(Nc1ccc([N+](=O)[O-])cc1Cl)c1cc(Cl)ccc1O` [Niclosamide], the negative logarithm of the IC50 (pIC50) in [1] (Homo sapiens) and in series [2] (Homo sapiens) was < 4.40 each time.

As to `CC(C)(C)NC(=O)[C@@H]1C[C@@H]2CCCC[C@@H]2CN1C[C@@H](O)[C@H](Cc1ccccc1)NC(=O)[C@H](CC(N)=O)NC(=O)c1ccc2ccccc2n1` [Saquinavir], the pIC50 is 4.97 in series [1] (Homo sapiens); 4.68 in [2] (Homo sapiens); < 4.52 against WT VCP/p97 ATPase; < 4.52 against E578Q VCP/p97 ATPase; < 4.52 against E305Q VCP/p97 ATPase.

Take NMS-249: the pIC50 in the series on VCP is 6.54.

With `CC#CCC(C)[C@H](O)/C=C/[C@@H]1[C@H]2C/C(=C/CCCC(=O)O)C[C@H]2C[C@H]1O` (stereo partly drawn) [Iloprost], the pIC50 in series [1] (Homo sapiens) and in series [2] (Homo sapiens) was < 4.40 throughout.

As to `CC(C)C[C@@H](C=O)NC(=O)[C@H](CC(C)C)NC(=O)[C@H](CC(C)C)NC(=O)OCc1ccccc1` [MG132] (Cbz-Leu-Leu-Leu-aldehyde), the negative-log IC50 (pIC50) in [1] (Homo sapiens) was 5.92; in series [2] (Homo sapiens), 5.36.

Turning to NMS-862, the pIC50 with VCP was 5.58.

`Cc1cc(OCc2nnc(SC3CCCC3)n2-c2cccnc2)ccc1-c1ccc(S(C)(=O)=O)cc1` [NMS-873]: the pIC50 in [1] is 5.85; in series [2] (Homo sapiens), < 4.40; in the series on VCP, 7.52. Besides, the bioavailability result in [3] is “modest”. Besides, the systemic exposure result in [3] is listed as “modest”.

In the case of `Clc1ccccc1C(c1ccccc1)(c1ccccc1)n1ccnc1` [Clotrimazole], the pIC50 was 4.92 against WT VCP/p97 ATPase; 5.10 and 5.09 against E578Q VCP/p97 ATPase; 5.10 against E305Q VCP/p97 ATPase. For the same compound, in [4], the water solubility entry is given as “poor”.

Regarding `CC(C)(C)c1ccc(C(=O)CCCN2CCC(OC(c3ccccc3)c3ccccc3)CC2)cc1` [Ebastine], the “sensitization of NSCLC cells to chemotherapy” value in the series with NSCLC cells is on record as “sensitized NSCLC cells to chemotherapy”.
